How the values were obtained:
[1] = DRUGMATRIX: Sodium/nucleoside co-transporter radioligand binding (ligand: nitrobenzylthioinosine); assay type: cell membranes, Cavia porcellus, Dunkin-Hartley, Cerebral cortex, Membrane; conditions: Not Active = under 50% inhibition at 10 µM
[2] = target: T1, Vasoactive intestinal polypeptide receptor 1 (Homo sapiens, UniProt P32241); assay type: cell membranes, Membrane; conditions: ht-29; further: in other assays of this panel Not Active means under 50% inhibition at 10 µM
T1 sequence (P32241 whole entry): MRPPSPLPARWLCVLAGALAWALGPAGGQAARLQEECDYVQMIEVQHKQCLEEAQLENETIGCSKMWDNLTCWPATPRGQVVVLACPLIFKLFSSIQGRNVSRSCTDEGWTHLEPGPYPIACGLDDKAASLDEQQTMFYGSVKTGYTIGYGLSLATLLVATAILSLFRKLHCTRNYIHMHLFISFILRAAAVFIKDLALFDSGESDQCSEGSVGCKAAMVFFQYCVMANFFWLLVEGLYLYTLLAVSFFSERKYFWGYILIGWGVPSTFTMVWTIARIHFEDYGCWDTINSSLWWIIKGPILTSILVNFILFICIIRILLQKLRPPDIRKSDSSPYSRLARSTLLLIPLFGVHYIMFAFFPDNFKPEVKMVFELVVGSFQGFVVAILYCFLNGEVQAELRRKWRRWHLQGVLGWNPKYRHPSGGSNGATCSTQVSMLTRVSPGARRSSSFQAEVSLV

Histamine H2 receptor = Histamine H2 receptor (Homo sapiens, UniProt P25021); assay type: cell membranes, CHO-K1, Membrane; further: in other assays of this panel Not Active means under 50% inhibition at 10 µM
[3] = DRUGMATRIX: Potassium Channel [KATP] radioligand binding (ligand: [3H] Glyburide); assay type: cell membranes, Membrane; conditions: hit-t15; Not Active = under 50% inhibition at 10 µM
Cytochrome P450 1A2 = target: T2, Cytochrome P450 1A2 (Homo sapiens, UniProt P05177); conditions: bti-tn-5b1-4; further: in other assays of this panel Not Active means under 50% inhibition at 10 µM
T2 sequence (P05177 whole entry): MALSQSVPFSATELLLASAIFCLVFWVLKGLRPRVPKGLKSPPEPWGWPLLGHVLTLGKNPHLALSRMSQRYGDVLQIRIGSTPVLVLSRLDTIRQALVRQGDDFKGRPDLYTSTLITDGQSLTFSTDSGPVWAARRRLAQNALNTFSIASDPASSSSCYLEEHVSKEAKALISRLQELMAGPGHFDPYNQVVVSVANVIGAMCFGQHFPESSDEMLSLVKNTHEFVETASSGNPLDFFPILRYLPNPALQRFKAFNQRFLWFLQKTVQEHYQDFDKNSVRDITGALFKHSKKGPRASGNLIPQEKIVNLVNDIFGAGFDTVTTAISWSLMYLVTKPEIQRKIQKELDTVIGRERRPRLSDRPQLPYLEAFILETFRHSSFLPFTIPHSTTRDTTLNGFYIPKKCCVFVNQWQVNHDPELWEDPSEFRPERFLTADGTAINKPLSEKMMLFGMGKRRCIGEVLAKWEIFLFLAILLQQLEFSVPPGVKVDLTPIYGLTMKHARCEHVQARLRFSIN

Estrogen receptor = target: T3, Estrogen receptor (Homo sapiens, UniProt P03372); conditions: sf9; further: in other assays of this panel Not Active means under 50% inhibition at 10 µM
T3 sequence (P03372 whole entry): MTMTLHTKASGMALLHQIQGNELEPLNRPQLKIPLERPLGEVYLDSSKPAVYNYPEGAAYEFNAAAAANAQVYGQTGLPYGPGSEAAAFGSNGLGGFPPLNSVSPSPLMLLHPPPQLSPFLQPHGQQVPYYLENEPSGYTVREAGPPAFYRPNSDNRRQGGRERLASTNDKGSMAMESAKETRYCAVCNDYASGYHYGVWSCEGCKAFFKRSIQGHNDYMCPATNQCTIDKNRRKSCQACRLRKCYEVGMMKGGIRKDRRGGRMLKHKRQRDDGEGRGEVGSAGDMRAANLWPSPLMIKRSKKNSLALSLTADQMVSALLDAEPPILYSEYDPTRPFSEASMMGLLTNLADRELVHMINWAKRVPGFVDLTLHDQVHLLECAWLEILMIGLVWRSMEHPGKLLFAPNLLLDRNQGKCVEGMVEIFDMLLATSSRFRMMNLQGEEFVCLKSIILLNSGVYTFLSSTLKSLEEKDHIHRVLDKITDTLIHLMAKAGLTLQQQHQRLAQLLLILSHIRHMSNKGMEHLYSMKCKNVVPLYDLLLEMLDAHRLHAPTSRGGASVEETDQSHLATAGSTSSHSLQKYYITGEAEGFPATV

[4] = target: Tyrosine-protein kinase Fyn (Homo sapiens, UniProt P06241); test: biochemical; assay type: cell-based, Insect cells; conditions: insect cells
Chain of Tyrosine-protein kinase Fyn (P06241 whole entry): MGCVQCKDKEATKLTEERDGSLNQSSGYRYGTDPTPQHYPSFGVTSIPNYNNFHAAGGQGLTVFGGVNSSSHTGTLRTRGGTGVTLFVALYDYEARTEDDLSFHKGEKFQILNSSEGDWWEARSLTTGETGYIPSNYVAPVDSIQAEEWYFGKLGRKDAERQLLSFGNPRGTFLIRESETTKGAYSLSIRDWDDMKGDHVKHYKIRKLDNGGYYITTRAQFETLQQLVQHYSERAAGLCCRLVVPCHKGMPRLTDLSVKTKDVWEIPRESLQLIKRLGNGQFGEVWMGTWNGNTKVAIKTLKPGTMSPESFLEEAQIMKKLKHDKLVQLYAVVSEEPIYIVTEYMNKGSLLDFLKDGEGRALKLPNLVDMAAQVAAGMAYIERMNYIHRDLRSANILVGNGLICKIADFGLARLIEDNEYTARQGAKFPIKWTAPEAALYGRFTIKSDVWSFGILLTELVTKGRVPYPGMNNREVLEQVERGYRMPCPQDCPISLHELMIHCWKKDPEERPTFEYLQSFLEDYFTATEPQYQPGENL

Chain of Histamine H2 receptor (P25021 whole entry): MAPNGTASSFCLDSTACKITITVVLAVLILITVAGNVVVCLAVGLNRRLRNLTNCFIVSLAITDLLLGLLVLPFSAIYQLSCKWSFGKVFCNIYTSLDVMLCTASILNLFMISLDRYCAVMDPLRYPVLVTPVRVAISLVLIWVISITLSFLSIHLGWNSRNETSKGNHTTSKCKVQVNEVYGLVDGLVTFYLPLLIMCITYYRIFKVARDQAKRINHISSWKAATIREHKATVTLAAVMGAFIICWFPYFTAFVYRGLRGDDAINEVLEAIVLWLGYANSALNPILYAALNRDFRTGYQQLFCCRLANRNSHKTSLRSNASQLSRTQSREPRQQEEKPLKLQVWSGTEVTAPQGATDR

| Molecule | IC50 [1] | Ki [1] | IC50 [2] | Ki [2] | IC50 (Histamine H2 receptor; cho-k1) | Ki (Histamine H2 receptor; cho-k1) | IC50 [3] | Ki [3] | IC50 (Cytochrome P450 1A2) | Ki (Cytochrome P450 1A2) | IC50 (Estrogen receptor) | Ki (Estrogen receptor) | IC50 [4] | Ki [4] | IC50 (Histamine H2 receptor; read-out: IC50) [nM] | Ki (Histamine H2 receptor; read-out: Ki) [nM] |
| --- | --- | --- | --- | --- | --- | --- | --- | --- | --- | --- | --- | --- | --- | --- | --- | --- |
| CHROMIC CHLORIDE | Not Active | Not Active | Not Active | Not Active | Not Active | Not Active | Not Active | Not Active | Not Active | Not Active | Not Active | Not Active | – | – | – | – |
| CCN1C[C@]2(COC)[C@H](O)C[C@H](OC)[C@@]34[C@@H]5C[C@@]6(O)[C@H](OC(=O)c7ccccc7)[C@@H]5[C@@](OC(C)=O)([C@@H]([C@H](OC)[C@H]23)[C@@H]14)[C@@H](O)[C@@H]6OC [ACONITINE] | Not Active | Not Active | Not Active | – | Not Active | – | Not Active | Not Active | Not Active | Not Active | Not Active | – | Not Active | – | – | – |
| O=C(O)CCc1nc(-c2ccccc2)c(-c2ccccc2)o1 [OXAPROZIN] | Not Active | Not Active | Not Active | – | Not Active | – | Not Active | Not Active | Not Active | Not Active | Not Active | – | Not Active | – | – | – |
| Clc1cc(Cl)c(OCC#CI)cc1Cl [HALOPROGIN] | Not Active | Not Active | Not Active | – | Not Active | – | Not Active | Not Active | Not Active | Not Active | Not Active | – | Not Active | – | – | – |
| COc1ccccc1OCCNCC(O)COc1cccc2[nH]c3ccccc3c12 (configuration not stated) [CARVEDILOL] | Not Active | Not Active | Not Active | – | Not Active | – | Not Active | Not Active | Not Active | Not Active | Not Active | – | Not Active | – | – | – |
| POVIDONE | Not Active | Not Active | Not Active | Not Active | Not Active | Not Active | Not Active | Not Active | Not Active | Not Active | Not Active | Not Active | Not Active | Not Active | – | – |
| C=C(Cl)Cl [1,1-DICHLOROETHENE] | Not Active | Not Active | Not Active | – | Not Active | – | Not Active | Not Active | Not Active | Not Active | Not Active | – | Not Active | – | – | – |
| CC(=O)[C@]1(O)Cc2c(O)c3c(c(O)c2[C@@H](O[C@H]2C[C@H](N)[C@H](O)[C@H](C)O2)C1)C(=O)c1ccccc1C3=O [IDARUBICIN] | Not Active | Not Active | Not Active | – | Not Active | – | Not Active | Not Active | Not Active | Not Active | Not Active | – | Not Active | – | – | – |
| CO[C@H]1O[C@@H]2O[C@@]3(C)CC[C@H]4[C@H](C)CC[C@@H]([C@H]1C)[C@@]24OO3 | Not Active | Not Active | Not Active | – | Not Active | – | Not Active | Not Active | Not Active | Not Active | Not Active | – | Not Active | – | – | – |
| CC12CCC(CC1)C(C)(C)O2 [EUCALYPTOL] | Not Active | Not Active | Not Active | – | Not Active | – | Not Active | Not Active | Not Active | Not Active | Not Active | – | Not Active | – | – | – |
| NS(=O)(=O)c1cc(C(=O)O)c(NCc2ccco2)cc1Cl [FUROSEMIDE] | Not Active | Not Active | Not Active | – | Not Active | – | Not Active | Not Active | – | – | Not Active | – | Not Active | – | – | – |
| CC(C)NCC(O)COc1ccc(CC(N)=O)cc1 (configuration not stated) [ATENOLOL] | Not Active | Not Active | Not Active | – | Not Active | – | Not Active | Not Active | – | – | Not Active | – | Not Active | – | – | – |
| Oc1ncnc2[nH]ncc12 [ALLOPURINOL] | Not Active | Not Active | Not Active | – | Not Active | – | Not Active | Not Active | Not Active | Not Active | Not Active | – | Not Active | – | – | – |
| O=C1CN(/N=C/c2ccc([N+](=O)[O-])o2)C(=O)N1 [NITROFURANTOIN] | Not Active | Not Active | Not Active | – | Not Active | – | Not Active | Not Active | Not Active | Not Active | Not Active | – | Not Active | – | – | – |
| CC12CCC(CC1=O)C2(C)C (configuration not stated) [CAMPHOR] | Not Active | Not Active | Not Active | – | Not Active | – | Not Active | Not Active | Not Active | Not Active | Not Active | – | Not Active | – | – | – |
| NC(N)=Nc1nc(CSCCC(N)=NS(N)(=O)=O)cs1 [FAMOTIDINE] | Not Active | Not Active | Not Active | – | – | – | – | – | Not Active | Not Active | Not Active | – | Not Active | – | 42 | 41 |
| CC(=O)Nc1ccc2c(c1)Cc1ccccc1-2 [2-ACETYLAMINOFLUORENE] | Not Active | Not Active | Not Active | – | Not Active | – | Not Active | Not Active | – | – | Not Active | – | Not Active | – | – | – |
| c1ccc(Cn2ccnc2)cc1 | Not Active | Not Active | Not Active | – | Not Active | – | Not Active | Not Active | – | – | Not Active | – | Not Active | – | – | – |
| CC(N)Cc1c[nH]c2ccc(OCc3cccs3)cc12 (configuration not stated) [BW-723C86] | Not Active | Not Active | Not Active | – | Not Active | – | Not Active | Not Active | – | – | Not Active | – | Not Active | – | – | – |
| O=C(O)CNCP(=O)(O)O [GLYPHOSATE] | Not Active | Not Active | Not Active | – | Not Active | – | Not Active | Not Active | – | – | Not Active | – | Not Active | – | – | – |
| COc1cc(NC(C)CCCN)c2ncccc2c1 (configuration not stated) [PRIMAQUINE] | Not Active | Not Active | Not Active | – | Not Active | – | Not Active | Not Active | – | – | Not Active | – | Not Active | – | – | – |
| c1ccc2c(c1)Nc1ccccc1S2 [PHENOTHIAZINE] | Not Active | Not Active | Not Active | – | Not Active | – | Not Active | Not Active | – | – | Not Active | – | Not Active | – | – | – |
| O=c1[nH]c2ccccc2c2ccccc12 | Not Active | Not Active | Not Active | – | Not Active | – | Not Active | Not Active | – | – | Not Active | – | Not Active | – | – | – |
